From ChEMBL document CHEMBL5055666, “Tyrosine-Derived Novel Benzoxazine Active in a Rat Syngenic Mammary Tumor Model of Breast Cancer” (J Med Chem, 2021)
Active and inactive are the calls of the source. The calls are words filed in the database; no cut-off is given here.

How the values were obtained:
MDA-MB-231 [1] = experiment: Disruption of mitochondrial membrane integrity in human MDA-MB-231 cells assessed as reduction in mitochondrial membrane potential at 0.125 to 1 uM by JC-1 staining based flow cytometry analysis; assay type: functional, cell-based; conditions: dose 0.125-1 µM
[2] = Tmax in Sprague-Dawley rat at 5 mg/kg, po measured upto 24 hrs; assay type: ADME, organism-based; conditions: in vivo
MCF7 [3] = experiment: Downregulation of ERalpha expression in human MCF7 cells after 24 hrs by immunoblot analysis; assay type: functional, cell-based
MDA-MB-231 [4] = experiment: Antiproliferative activity against human MDA-MB-231 cells assessed as inhibition of cell growth incubated for 48 hrs by MTT assay; assay type: functional, cell-based; conditions: MDA-MB-231, 48 h
LA7 [5] = experiment: Antiproliferative activity against rat LA7 cells assessed as inhibition of cell growth incubated for 72 hrs by MTT assay; assay type: functional, cell-based; conditions: LA7, 72 h
MCF7 [6] = experiment: Induction of cell cycle arrest in human MCF7 cells assessed as increase in sub-diploid population at 0.125 to 1 uM after 24 to 48 hrs by propidium iodide staining based flow cytometric analysis; assay type: functional; conditions: dose 0.125-1 µM, time 24-48 hrs
MDA-MB-231 [7] = experiment: Induction of cell damage in human MDA-MB-231 cells assessed as increase in LDH release at 0.125 to 100 uM; assay type: functional, cell-based; conditions: dose 0.125-100 µM
[8] = Induction of cell damage in human HEK293 cells assessed as increase in LDH release at > 20 uM; assay type: cell-based; conditions: hek293, 20 µM
MCF7 [9] = experiment: Antiproliferative activity against human MCF7 cells assessed as inhibition of cell growth incubated for 24 hrs by MTT assay; assay type: functional, cell-based; conditions: MCF7, 24 h
LA7 [10] = experiment: Antitumor activity against rat LA7 cells inoculated in Sprague-Dawley rat assessed as inhibition of tumor growth at 5 to 20 mg/kg administered daily for 21 days; assay type: functional, organism-based; conditions: dose 5-20 mg/kg, time 21.0 day
[11] = Apparent oral clearance in Sprague-Dawley rat at 0.5 mg/kg, iv measured upto 24 hrs; assay type: ADME, organism-based; conditions: in vivo
[12] = Tmax in Sprague-Dawley rat at 0.5 mg/kg, iv measured upto 24 hrs; assay type: ADME, organism-based; conditions: in vivo
[13] = Apparent oral volume of distribution in Sprague-Dawley rat at 5 mg/kg, po measured upto 24 hrs; assay type: ADME, organism-based; conditions: in vivo
MCF7 [14] = experiment: Induction of apoptosis in human MCF7 cells assessed as nuclear condensation after 24 hrs by DAPI staining based fluorescent microscopic analysis; assay type: functional, cell-based; conditions: dose 0.125-1 µM
Rattus norvegicus [15] = experiment: Toxicity in Sprague-Dawley rat inoculated with rat LA7 cells assessed as change in organ weight at 5 to 20 mg/kg administered daily for 21 days; assay type: organism-based; conditions: la7, 504 h, dose 5-20 mg/kg, time 21 day
MCF7 [16] = experiment: Induction of intracellular ROS generation in human MCF7 cells at 0.125 to 1 uM incubated for 24 hrs by DCFH-DA staining-based flow cytometric analysis; assay type: functional, cell-based; conditions: dose 0.125-1 µM
MDA-MB-231 [17] = experiment: Antiproliferative activity against human MDA-MB-231 cells assessed as inhibition of cell growth incubated for 72 hrs by MTT assay; assay type: functional, cell-based; conditions: MDA-MB-231, 72 h
[18] = Mean residence time in Sprague-Dawley rat at 5 mg/kg, po measured upto 24 hrs; assay type: ADME, organism-based; conditions: in vivo
[19] = Cmax in Sprague-Dawley rat at 5 mg/kg, po measured upto 24 hrs; assay type: ADME, organism-based; set-up: time < 24 hrs, dose 5 mg/kg, route po; conditions: in vivo
MCF-10A [20] = experiment: Antiproliferative activity against human MCF-10A cells assessed as inhibition of cell growth incubated for 72 hrs by MTT assay; assay type: cell-based
[21] = Mean residence time in Sprague-Dawley rat at 0.5 mg/kg, iv measured upto 24 hrs; assay type: ADME, organism-based; conditions: in vivo
[22] = Half life in Sprague-Dawley rat at 0.5 mg/kg, iv measured upto 24 hrs; assay type: ADME, organism-based; conditions: in vivo
Rattus norvegicus [23] = experiment: Toxicity in Sprague-Dawley rat inoculated with rat LA7 cells assessed as increase in uterine tissue at 5 to 20 mg/kg administered daily for 21 days; assay type: organism-based; conditions: la7, 504 h, dose 5-20 mg/kg, time 21 day
MDA-MB-231 [24] = experiment: Antiproliferative activity against human MDA-MB-231 cells assessed as inhibition of cell growth incubated for 24 hrs by MTT assay; assay type: functional, cell-based; conditions: MDA-MB-231, 24 h
LA7 [25] = experiment: Antiproliferative activity against rat LA7 cells assessed as inhibition of cell growth incubated for 48 hrs by MTT assay; assay type: functional, cell-based; conditions: LA7, 48 h
MCF7 [26] = experiment: Antiproliferative activity against human MCF7 cells assessed as inhibition of cell growth incubated for 72 hrs by MTT assay; assay type: functional, cell-based; conditions: MCF7, 72 h
[27] = Cmax in Sprague-Dawley rat at 0.5 mg/kg, iv measured upto 24 hrs; assay type: ADME, organism-based; set-up: time < 24 hrs, dose 0.5 mg/kg, route iv; conditions: in vivo
LA7 [28] = experiment: Antitumor activity against rat LA7 cells inoculated in Sprague-Dawley rat assessed as reduction in formation of neoplastic lesions in lungs at 5 to 20 mg/kg administered daily for 21 days; assay type: functional, organism-based; conditions: dose 5-20 mg/kg, time 21.0 day
LA7 [29] = experiment: Antiproliferative activity against rat LA7 cells assessed as inhibition of cell growth incubated for 24 hrs by MTT assay; assay type: functional, cell-based; conditions: LA7, 24 h
[30] = AUC(0 to infinity) in Sprague-Dawley rat at 5 mg/kg, po measured upto 24 hrs; assay type: ADME, organism-based; set-up: dose 5 mg/kg, time < 24 hrs, route po; conditions: in vivo
MCF-10A [31] = experiment: Antiproliferative activity against human MCF-10A cells assessed as inhibition of cell growth incubated for 24 hrs by MTT assay; assay type: cell-based
[32] = Apparent oral clearance in Sprague-Dawley rat at 5 mg/kg, po measured upto 24 hrs; assay type: ADME, organism-based; conditions: in vivo
MDA-MB-231 [33] = experiment: Induction of intracellular ROS generation in human MDA-MB-231 cells at 0.125 to 1 uM incubated for 24 hrs by DCFH-DA staining-based flow cytometric analysis; assay type: functional, cell-based; conditions: dose 0.125-1 µM
[34] = Half life in Sprague-Dawley rat at 5 mg/kg, po measured upto 24 hrs; assay type: ADME, organism-based; conditions: in vivo
MDA-MB-231 [35] = experiment: Induction of apoptosis in human MDA-MB-231 cells assessed as nuclear blabbing after 24 hrs by DAPI staining based fluorescent microscopic analysis; assay type: functional, cell-based; conditions: dose 0.125-1 µM
MCF7 [36] = experiment: Upregulation of ERbeta expression in human MCF7 cells after 24 hrs by immunoblot analysis; assay type: functional, cell-based; conditions: dose 500-5 µM
MCF7 [37] = experiment: Induction of apoptosis in human MCF7 cells assessed as increase in total apoptotic population at 0.125 to 1 uM after 24 to 48 hrs by Annexin V-FITC/propidium iodide staining based flow cytometric analysis; assay type: functional, cell-based; conditions: dose 0.125-1 µM, time 24-48 hrs
MDA-MB-231 [38] = experiment: Induction of apoptosis in human MDA-MB-231 cells assessed as increase in total apoptotic population at 0.125 to 1 uM after 24 to 48 hrs by Annexin V-FITC/propidium iodide staining based flow cytometric analysis; assay type: functional, cell-based; conditions: dose 0.125-1 µM, time 24-48 hrs
MCF7 [39] = experiment: Antiproliferative activity against human MCF7 cells assessed as inhibition of cell growth incubated for 48 hrs by MTT assay; assay type: functional, cell-based; conditions: MCF7, 48 h
MCF7 [40] = experiment: Induction of cell damage in human MCF7 cells assessed as increase in LDH release at 0.125 to 100 uM; assay type: functional, cell-based; conditions: dose 0.125-100 µM
MCF7 [41] = experiment: Disruption of mitochondrial membrane integrity in human MCF7 cells assessed as reduction in mitochondrial membrane potential at 0.125 to 1 uM by JC-1 staining based flow cytometry analysis; assay type: functional, cell-based; conditions: dose 0.125-1 µM
MCF7 [42] = experiment: Induction of apoptosis in human MCF7 cells assessed as nuclear blabbing after 24 hrs by DAPI staining based fluorescent microscopic analysis; assay type: functional, cell-based; conditions: dose 0.125-1 µM
[43] = AUC(0 to infinity) in Sprague-Dawley rat at 0.5 mg/kg, iv measured upto 24 hrs; assay type: ADME, organism-based; set-up: time < 24 hrs, dose 0.5 mg/kg, route iv; conditions: in vivo
MDA-MB-231 [44] = experiment: Induction of apoptosis in human MDA-MB-231 cells assessed as nuclear condensation after 24 hrs by DAPI staining based fluorescent microscopic analysis; assay type: functional, cell-based; conditions: dose 0.125-1 µM
MDA-MB-231 [45] = experiment: Induction of cell cycle arrest in human MDA-MB-231 cells assessed as increase in sub-diploid population at 0.125 to 1 uM after 24 to 48 hrs by propidium iodide staining based flow cytometric analysis; assay type: functional; conditions: dose 0.125-1 µM, time 24-48 hrs
Rattus norvegicus [46] = experiment: Toxicity in Sprague-Dawley rat inoculated with rat LA7 cells assessed as mortality at 5 to 20 mg/kg administered daily for 21 days; assay type: organism-based; conditions: la7, 504 h, dose 5-20 mg/kg, time 21 day
[47] = Drug release in tris buffer pH 7.4 after 10 min by membrane dialysis method; assay type: physicochemical; conditions: pH 7.4, 10 min
[48] = Apparent oral volume of distribution in Sprague-Dawley rat at 0.5 mg/kg, iv measured upto 24 hrs; assay type: ADME, organism-based; conditions: in vivo

For `COc1ccc(C[C@H]2COc3ccccc3N2Cc2ccc(OCCN3CCCC3)cc2)cc1`, the Activity (MDA-MB-231 [1]) was “Active”, the Tmax [2] was 0.25 h and the Activity (MCF7 [3]) was “Dose-dependent effect”. For the same compound, the IC50 (MDA-MB-231 [4]) was 700 nM, the IC50 (LA7 [5]) was 190 nM and the Activity (MCF7 [6]) was “Dose-dependent effect”. For the same compound, the Activity (MDA-MB-231 [7]) was “Active”, the Activity [8] was “Toxic” and the IC50 (MCF7 [9]) was 200 nM. For the same compound, the Activity (LA7 [10]) was “Active”, the CL/F [11] was 68.8 mL/min/kg and the Tmax [12] was 0.83 h. The Vd/F [13] was 140 L/kg, the Activity (MCF7 [14]) was “Dose-dependent effect” and the Activity (Rattus norvegicus [15]) was “Non-Toxic”. For the same compound, the Activity (MCF7 [16]) was “Active”, the IC50 (MDA-MB-231 [17]) was 700 nM and the MRT [18] was 16.1 h. For the same compound, the Cmax [19] was 43.2 ng/mL, the IC50 (MCF-10A [20]) was > 18000 nM and the MRT [21] was 4.66 h. The half-life [22] was 3.42 h, the Activity (Rattus norvegicus [23]) was “Non-Toxic” and the IC50 (MDA-MB-231 [24]) was 650 nM. For the same compound, the IC50 (LA7 [25]) was 240 nM, the IC50 (MCF7 [26]) was 250 nM and the Cmax [27] was 49.6 ng/mL. For the same compound, the Activity (LA7 [28]) was “Active”, the IC50 (LA7 [29]) was 660 nM and the AUC(0-inf) [30] was 506 ng·h/mL. For the same compound, the IC50 (MCF-10A [31]) was > 25000 nM, the CL/F [32] was 176 mL/min/kg and the Activity (MDA-MB-231 [33]) was “Active”. The half-life [34] was 8.97 h, the Activity (MDA-MB-231 [35]) was “Dose-dependent effect” and the Activity (MCF7 [36]) was “Dose-dependent effect”. For the same compound, the Activity (MCF7 [37]) was “Active”, the Activity (MDA-MB-231 [38]) was “Active” and the IC50 (MCF7 [39]) was 300 nM. The Activity (MCF7 [40]) was “Active”, the Activity (MCF7 [41]) was “Active” and the Activity (MCF7 [42]) was “Dose-dependent effect”. The AUC(0-inf) [43] was 124 ng·h/mL, the Activity (MDA-MB-231 [44]) was “Dose-dependent effect” and the Activity (MDA-MB-231 [45]) was “Dose-dependent effect”. For the same compound, the Activity (Rattus norvegicus [46]) was “Non-Toxic”, the Drug transport [47] was 90% and the Vd/F [48] was 19.9 L/kg.
